Assay results as given in US8716192B2, “Micro RNAs for identification of exposure to lower aliphatic saturated aldehydes and the method of identification using thereof” (Korea Institute of Science and Technology, priority 2012, dated 2014).
Read-outs that look alike come from different tables or passages of the source.

What was measured:
[1] = test system: hsa-miR-590-5p (MIMAT0003258); assay: Micro RNA microarray, change of hsa-miR-590-5p expression; assay type: cell-based, human; conditions: for Change (Fold) hsa-miR-590-5p: A549, treated at IC20 for 48 hours, microarray, versus control
[2] = test system: A549 cells; assay: in vitro; assay type: cell-based, human
Experimental: (§1) A549 cells (Korean Cell Line Bank), the human lung cancer tissue derived cell line, were cultured in 100 mm dish containing RPMI (Gibro-BRL, USA) supplemented with 10% FBS until the confluency reached 80%. […] The concentration of vehicle was up to 0.1% in every experiment.
(§2) MTT assay was performed with A549 cell line according to the method of Mossman, et al (J. Immunol. Methods, 65, 55-63, 1983).
(§3) 48 hours later, 5 mg/ml of MTT (3-4,5-dimethylthiazol-2,5-diphenyltetra zolium bromide) was added thereto, followed by culture at 37° C. for 3 hours. Then, the medium was discarded and the formed formazan crystal was dissolved in 500 μl of DMSO, which was aliquoted in 96-well plate. OD540 was measured.

[3] = test system: A549 cells; assay: Micro RNA expression pattern by oligo microarray (Agilent Human miRNA array v16.0, 1347 human micro RNAs); assay type: cell-based; conditions: A549, treated at IC20 for 48 hours; for number of up-regulated micro RNAs out of 1347 / up-regulated micro RNA, share of 1347 micro RNAs: signal ratio to control higher than 1.5; for down-regulated micro RNA, share of 1347 micro RNAs / number of down-regulated micro RNAs out of 1347: signal ratio to control lower than 0.66
[4] = test system: hsa-miR-28-5p (MIMAT0000085); assay: Micro RNA microarray, change of hsa-miR-28-5p expression; assay type: cell-based, human; conditions: for Change (Fold) hsa-miR-28-5p: A549, treated at IC20 for 48 hours, microarray, versus control
[5] = in vitro; assay type: cell-based, human; conditions: human
Experimental: as §1, §2, §3

Row | IC20 [2] | IC20 at 48 h [5] | SMILES | Change (Fold) hsa-miR-590-5p [1] | expression level of hsa-miR-590-5p compared to the normal control group ([1]; result in words) | number of up-regulated micro RNAs out of 1347 [3] | up-regulated micro RNA, share of 1347 micro RNAs [3] | down-regulated micro RNA, share of 1347 micro RNAs [3] | number of down-regulated micro RNAs out of 1347 [3] | Change (Fold) hsa-miR-28-5p [4] | expression level of hsa-miR-28-5p compared to the normal control group ([4]; result in words) | expression level of hsa-miR-590-5p compared to the normal control group [1] | expression level of hsa-miR-28-5p compared to the normal control group [4]
1 | 4600 µM | – | CCCC=O [butylaldehyde] | 0.563 Fold | down-regulated | 14 | 1.04% | 0.82% | 11 | 0.962 Fold | – | – | –
2 | – | – | CCCCCCC=O [heptanal] | 0.512 Fold | down-regulated | 0 | 0.00% | 0.30% | 4 | 0.922 Fold | down-regulated | – | –
3 | – | – | CCCCCC=O [hexanal] | – | – | 5 | 0.37% | 0.07% | 1 | – | – | up-regulated | up-regulated
4 | – | 440 µM | CCCCCCCCC=O [nonanal] | 0.966 Fold | down-regulated | 6 | 0.45% | 0.00% | 0 | 1.569 Fold | up-regulated | – | –
5 | – | – | CCCCCCCC=O [octanal] | 0.508 Fold | down-regulated | one | 0.07% | 1.04% | 14 | 0.755 Fold | down-regulated | – | –
6 | – | – | CCC=O [propionaldehyde] | – | – | 13 | 0.97% | 0.15% | 2 | – | up-regulated | – | –
7 | – | – | CCCCC=O [valeraldehyde] | 1.253 Fold | up-regulated | 8 | 0.59% | 0.15% | 5 | 1.660 Fold | up-regulated | – | –
